# Columns and labels:
# [1] = Dynamic vapor sorption (DVS) hygroscopicity; format: physicochemical; conditions: between 0% and 95% RH, 25° C.
# Experimental: (peak temperature) which is accompanied by 5.9 wt % weight loss up to ˜150° C. in the TGA curve (FIG. 3). […] A solid is considered moderately hygroscopic when water uptake at 25° C./80% RH is between 2-15 wt % based on criteria of European Pharmacopeia. […] Form B of EP-1 trihydrate (x is 3) is a trihydrate as confirmed by single crystal analysis. The experimental XRPD pattern of Form B matches well with the simulated one from single crystal data (FIG. 6). This was also confirmed by DSC and TGA data (FIG. 7 and FIG. 8, respectively). DSC data indicates Form B dehydrates at ˜132° C. […] Form B is slightly hygroscopic as evidenced by a weight change of ˜0.3% between 0% and 95% RH (FIG. 9), (data collection was programmed from 95% RH-0% RH-95% RH at a step size of 10% RH at 25° C.).
# Solution stability = format: physicochemical
# Experimental: 0.1 mg/ml solutions of Form B were prepared in five buffers, including 0.01N HCl (pH 2), 50 mM sodium citrate (pH 4), 50 mM sodium citrate (pH 6), 50 mM sodium phosphate (pH 8), and 50 mM sodium carbonate (pH 10). Methanol was added as a co-solvent to dissolve Form B in buffers (i.e., 10% (v/v) in pH 2, 4, and 6 buffers, 20% (v/v) in pH 8 buffer, and 30% (v/v) in pH 10 buffer). Each buffer solution containing Form B was stored at 3 different temperatures: 25° C., 37° C., and 50° C. Aliquots were taken for HPLC analysis after 1 day and 7 days. pH values were also measured before and after the stability experiments.
smiles,measurement,setting,value
"CC(C)N(C[C@H]1O[C@@H](n2cnc3c(N)ncnc32)[C@H](O)[C@@H]1O)[C@H]1C[C@@H](CCc2nc3cc(C(C)(C)C)ccc3[nH]2)C1 [Form B, (2R,3R,4S,5R)-2-(6-amino-9H-purin-9-yl)-5-((((1r,3S)-3-(2-(5-(tert-butyl)-1H-benzo[d]imidazol-2-yl)ethyl)cyclobutyl)(isopropyl)amino)methyl)tetrahydrofuran-3,4-diol trihydrate]",weight change (DVS),[1],~0.3%
same,% area,"Solution stability; pH 2, 25° C., 24 h",98.7%
same,% claim,"Solution stability; pH 2, 25° C., 24 h",97.1%
same,pH,"Solution stability; pH 2, 25° C., 24 h",2.1
same,% area,"Solution stability; pH 2, 25° C., 7 days",98.5%
same,% claim,"Solution stability; pH 2, 25° C., 7 days",99.1%
same,pH,"Solution stability; pH 2, 25° C., 7 days",2.1
same,% area,"Solution stability; pH 2, 37° C., 24 h",98.7%
same,% claim,"Solution stability; pH 2, 37° C., 24 h",96.8%
same,pH,"Solution stability; pH 2, 37° C., 24 h",2.1
same,% area,"Solution stability; pH 2, 37° C., 7 days",98.4%
same,% claim,"Solution stability; pH 2, 37° C., 7 days",97.5%
same,pH,"Solution stability; pH 2, 37° C., 7 days",2.1
same,% area,"Solution stability; pH 2, 50° C., 24 h",98.3%
same,% claim,"Solution stability; pH 2, 50° C., 24 h",97.0%
same,pH,"Solution stability; pH 2, 50° C., 24 h",2.1
same,% area,"Solution stability; pH 2, 50° C., 7 days",98.4%
same,% claim,"Solution stability; pH 2, 50° C., 7 days",97.0%
same,pH,"Solution stability; pH 2, 50° C., 7 days",2.1
same,degradation in solution,"Solution stability; pH 2-10 buffers, 25-50° C., up to 7 days",less than 5%
same,% area,"Solution stability; pH 4, 25° C., 24 h",99.4%
same,% claim,"Solution stability; pH 4, 25° C., 24 h",97.4%
same,pH,"Solution stability; pH 4, 25° C., 24 h",4.2
same,% area,"Solution stability; pH 4, 25° C., 7 days",99.6%
same,% claim,"Solution stability; pH 4, 25° C., 7 days",100.2%
same,pH,"Solution stability; pH 4, 25° C., 7 days",4.2
same,% area,"Solution stability; pH 4, 37° C., 24 h",99.4%
same,% claim,"Solution stability; pH 4, 37° C., 24 h",97.6%
same,pH,"Solution stability; pH 4, 37° C., 24 h",4.1
same,% area,"Solution stability; pH 4, 37° C., 7 days",99.5%
same,% claim,"Solution stability; pH 4, 37° C., 7 days",99.0%
same,pH,"Solution stability; pH 4, 37° C., 7 days",4.1
same,% area,"Solution stability; pH 4, 50° C., 24 h",99.4%
same,% claim,"Solution stability; pH 4, 50° C., 24 h",97.6%
same,pH,"Solution stability; pH 4, 50° C., 24 h",4.1
same,% area,"Solution stability; pH 4, 50° C., 7 days",99.5%
same,% claim,"Solution stability; pH 4, 50° C., 7 days",98.7%
same,pH,"Solution stability; pH 4, 50° C., 7 days",4.2
same,% area,"Solution stability; pH 6, 25° C., 24 h",99.2%
same,% claim,"Solution stability; pH 6, 25° C., 24 h",98.0%
same,pH,"Solution stability; pH 6, 25° C., 24 h",6.2
same,% area,"Solution stability; pH 6, 25° C., 7 days",99.5%
same,% claim,"Solution stability; pH 6, 25° C., 7 days",100.0%
same,pH,"Solution stability; pH 6, 25° C., 7 days",6.2
same,% area,"Solution stability; pH 6, 37° C., 24 h",99.3%
same,% claim,"Solution stability; pH 6, 37° C., 24 h",97.9%
same,pH,"Solution stability; pH 6, 37° C., 24 h",6.2
same,% area,"Solution stability; pH 6, 37° C., 7 days",99.4%
same,% claim,"Solution stability; pH 6, 37° C., 7 days",99.0%
same,pH,"Solution stability; pH 6, 37° C., 7 days",6.3
same,% area,"Solution stability; pH 6, 50° C., 24 h",99.3%
same,% claim,"Solution stability; pH 6, 50° C., 24 h",98.1%
same,pH,"Solution stability; pH 6, 50° C., 24 h",6.2
same,% area,"Solution stability; pH 6, 50° C., 7 days",99.5%
same,% claim,"Solution stability; pH 6, 50° C., 7 days",98.9%
same,pH,"Solution stability; pH 6, 50° C., 7 days",6.2
same,% area,"Solution stability; pH 8, 25° C., 24 h",99.2%
same,% claim,"Solution stability; pH 8, 25° C., 24 h",98.0%
same,pH,"Solution stability; pH 8, 25° C., 24 h",8.2
same,% area,"Solution stability; pH 8, 25° C., 7 days",99.5%
same,% claim,"Solution stability; pH 8, 25° C., 7 days",99.8%
same,pH,"Solution stability; pH 8, 25° C., 7 days",8.2
same,% area,"Solution stability; pH 8, 37° C., 24 h",99.5%
same,% claim,"Solution stability; pH 8, 37° C., 24 h",98.4%
same,pH,"Solution stability; pH 8, 37° C., 24 h",8.2
same,% area,"Solution stability; pH 8, 37° C., 7 days",99.5%
same,% claim,"Solution stability; pH 8, 37° C., 7 days",99.3%
same,pH,"Solution stability; pH 8, 37° C., 7 days",8.3
same,% area,"Solution stability; pH 8, 50° C., 24 h",99.5%
same,% claim,"Solution stability; pH 8, 50° C., 24 h",98.0%
same,pH,"Solution stability; pH 8, 50° C., 24 h",8.3
same,% area,"Solution stability; pH 8, 50° C., 7 days",99.5%
same,% claim,"Solution stability; pH 8, 50° C., 7 days",98.8%
same,pH,"Solution stability; pH 8, 50° C., 7 days",8.3
same,% area,"Solution stability; pH 10, 25° C., 24 h",99.4%
same,% claim,"Solution stability; pH 10, 25° C., 24 h",98.0%
same,pH,"Solution stability; pH 10, 25° C., 24 h",10.9
same,% area,"Solution stability; pH 10, 25° C., 7 days",99.4%
same,% claim,"Solution stability; pH 10, 25° C., 7 days",99.7%
same,pH,"Solution stability; pH 10, 25° C., 7 days",10.9
same,% area,"Solution stability; pH 10, 37° C., 24 h",99.4%
same,% claim,"Solution stability; pH 10, 37° C., 24 h",98.2%
same,pH,"Solution stability; pH 10, 37° C., 24 h",10.9
same,% area,"Solution stability; pH 10, 37° C., 7 days",99.4%
same,% claim,"Solution stability; pH 10, 37° C., 7 days",99.0%
same,pH,"Solution stability; pH 10, 37° C., 7 days",10.9
same,% area,"Solution stability; pH 10, 50° C., 24 h",99.5%
same,% claim,"Solution stability; pH 10, 50° C., 24 h",97.9%
same,pH,"Solution stability; pH 10, 50° C., 24 h",11.0
same,% area,"Solution stability; pH 10, 50° C., 7 days",99.4%
same,% claim,"Solution stability; pH 10, 50° C., 7 days",98.9%
same,pH,"Solution stability; pH 10, 50° C., 7 days",10.9

# Reference: patent US11753433B2, “Methods of synthesizing substituted purine compounds” (Epizyme, Inc., priority 2013, dated 2023)
